Reference: patent publication US20230023092A1, “TREATMENT OF DEPRESSION AND OTHER VARIOUS DISORDERS WITH PSILOCYBIN” (COMPASS […], priority 2019, published 2023)

Tested on: healthy subjects
Experiment: CANTAB global composite score
Assay type: in vivo, human
Settings: 10 mg, Day 7
Method: The following list of outcome measures are non-exhaustive. • a. The short-term change from Baseline (Day −1 [Visit 2]) to Day 7 (Visit 5) in cognitive measures of attention, spatial and working memory and executive function was measured by a composite score of the CANTAB Panel (Spatial Working Memory [SWM], Rapid Visual Information Processing [RVP], Paired Associates Learning [PAL]). • b. The short-term change from Baseline (Day −1 [Visit 2]) to Day 7 (Visit 5) in Social Cognition Panel scales (Pictorial Empathy Test [PET], Reading the Mind in the Eyes Test [RMET], Toronto Empathy Questionnaire [TEQ], Social Value Orientation [SVO], Scale of Social Responsibility [SSR]). • c. The change from Baseline (Day −1 [Visit 2]) to Day 28 (Visit 6) in cognitive measures of attention, spatial and working memory and executive function as measured by a composite score of the CANTAB Panel (SWM, RVP, PAL). • d. […] Dose-related differences between cognitive effects of psilocybin at Baseline (Day −1 [Visit 2]), Day 7 (Visit 5) and Day 28 (Visit 6), as measured by a composite score of the CANTAB Panel (SWM, RVP, PAL). • f. Dose-related differences between psychological effects of psilocybin at Baseline (Day −1 [Visit 2]), Day 7 (Visit 5) and Day 84 (Visit 7), as measured by Social Cognition Panel scales (PET, RMET, TEQ, SVO, SSR). • g. […]

CN(C)CCc1c[nH]c2cccc(OP(=O)(O)O)c12 [Psilocybin, psilocybin]
CANTAB global composite score, effect size of difference from placebo: 0.53
CANTAB global composite score, LS mean difference from placebo (p value ~0.04460): −0.1832
